For 4 compounds, EC50 and LC50 results are on record in ChEMBL document CHEMBL1128154, “16,19-cis-murisolin and murisolin a, two novel bioactive mono-tetrahydrofuran annonaceous acetogenins from Asimina triloba seeds” (Bioorg Med Chem Lett, 1995).

The structures appear in SMILES notation. ≈ marks a conversion by molar mass, not a printed value.

The subject of one data set is MCF7. Briefly: Cytotoxicity against human breast carcinoma MCF-7 cell lines. It is filed as functional. Conditions: read-out: ED50 (the source's name).
For the next data set, the system named is MIA PaCa-2. Put plainly: Cytotoxicity against human pancreatic carcinoma MIA PaCa-2 cell lines. The class given is functional. Conditions: read-out: ED50 (the source's name).
Another data set deals with A498. Put plainly: Cytotoxicity against human kidney carcinoma A-498cell lines. The class given is functional. Conditions: read-out: ED50 (the source's name).
In a further data set the test system is A549. Put plainly: Cytotoxicity against human lung carcinoma A-549 cell lines. The class given is functional. Conditions: read-out: ED50 (the source's name).
Data set [1] is described as follows: Lethality in Brine shrimp lethality test. Conditions: artemia.
A further data set relates to PC-3. Put plainly: Cytotoxicity against human prostate adenocarcinoma PC-3 cell lines. Conditions: read-out: ED50 (the source's name). It is filed as functional.
The test system of the next data set is HT-29. Put plainly: Cytotoxicity against human colon adenocarcinoma HT-29 cell lines. The class given is functional. The following applies: read-out: ED50 (the source's name).

Broadly, the LC50 is the concentration lethal to half of the exposed cells or organisms. Lower therefore signals greater toxicity. On to `CCCCCCCCCCCCC(O)[C@H]1CC[C@H]([C@H](O)CCCCCCCCCCC(O)CC2=C[C@H](C)OC2=O)O1` (single isomer, unassigned), for which the EC50 with MCF7 was 5400 ng/mL (≈ 9300 nM); with MIA PaCa-2 it was 51.8 ng/mL (≈ 89.2 nM); in the data set with A498, 66.7 ng/mL (≈ 115 nM); in the data set with A549, 0.00316 ng/mL (≈ 0.00544 nM); in the data set with PC-3, 8410 ng/mL (≈ 14500 nM). This compound also displayed an LC50 in data set [1] of 183 ng/mL (≈ 315 nM).

Regarding `CCCCCCCCCCCCC(O)[C@@H]1CC[C@H]([C@H](O)CCCCCCCCCCC(O)CC2=C[C@H](C)OC2=O)O1` (single isomer, unassigned), the EC50 in the data set on MCF7 turned out to be 3150 ng/mL (≈ 5420 nM); with MIA PaCa-2 it was 1.5 ng/mL (≈ 2.58 nM); in the data set with PC-3, 2360 ng/mL (≈ 4060 nM). Moreover, the LC50 in data set [1] amounted to 207 ng/mL (≈ 356 nM).

As to `COc1cccc2c1C(=O)c1c(O)c3c(c(O)c1C2=O)C[C@@](O)(C(=O)CO)C[C@@H]3O[C@H]1C[C@H](N)[C@H](O)[C@H](C)O1` [DOXORUBICIN], the EC50 came to 420 ng/mL (≈ 773 nM) in the data set on MCF7; 1.36 ng/mL (≈ 2.5 nM) in the data set with MIA PaCa-2; 2.26 ng/mL (≈ 4.16 nM) in the data set with A498; 3.99 ng/mL (≈ 7.34 nM) in the data set on A549; 34.9 ng/mL (≈ 64.2 nM) in the data set on PC-3; 24.3 ng/mL (≈ 44.7 nM) in the data set with HT-29.

As for `CCCCCCCCCCCCC(O)C1CC[C@H]([C@H](O)CCCCCCCCCCC(O)CC2=C[C@H](C)OC2=O)O1` (single isomer, unassigned), the EC50 with MCF7 amounted to 15.8 ng/mL (≈ 27.2 nM); with MIA PaCa-2, 15.3 ng/mL (≈ 26.3 nM); with A498 it was 4160 ng/mL (≈ 7160 nM); in the data set on A549 it was 3.41 ng/mL (≈ 5.87 nM); with PC-3, 1420 ng/mL (≈ 2440 nM); with HT-29, 1270 ng/mL (≈ 2190 nM). In data set [1], this compound displayed an LC50 of 346 ng/mL (≈ 596 nM).
